Values belong to the molecule of their own block, whether it stands above or below them.
Key:
[1] = patient, 900 mg lithium carbonate; ~0-1 h pre-intake vs ~1-2 h post-intake
Procedure: Further validated was the performance of the developed TOH-ISE in an in-situ lithium adherence monitoring study. To this end, a subject prescribed lithium-based medication was recruited. […] In a control experiment, touch-based sensing and salivary lithium analysis were also performed on three healthy subjects, where circulating lithium is expected to be negligible.
In-situ TOH-ISE characterization. […] For each touch-based entry, the subjects were instructed to wash their index or middle fingertips with DI water before testing. The acquired potentiometric readouts were processed using the same method as the ex-situ experiments to extract the sensing signal. For saliva collection, the subjects were instructed to rinse their mouth with cold water before collection. The samples were collected via direct salivation using a Saliva Collection Aid (Salimetrics, CA, USA). The salivary lithium was quantified using a colorimetric lithium assay kit (Abcam ab235613, MA, USA) and Nanodrop One (Thermo Fisher, MA, USA).

[2] = cited from earlier work
[3] = human, in vivo, 60 min
Description: Embodiments specifically employ the ethanol TH-sensor to assess whether the sensor is capable of differentiating between two states: no alcohol-intake vs. recent intake of an alcoholic beverage. For this context, defined were the measured signal S as the slope of the sensor's amperometric response, and the threshold as Sfree, avg+3×Sfree, SD, where Sfree, avg and Sfree, SD are the average and standard deviation of the signals obtained from the alcohol-free subject (three trials). […] Then performed were touch-based TH-sensor measurements before (t=−20 min) and after (t=+60 min) the intake of an alcoholic beverage (~100 mL, 12.5% alcohol).
Two human subjects participated in the characterization of each type of TH-sensor. For each trial, the subjects were instructed to wash their index fingertips with deionized (DI) water before testing and to rinse their mouth with cold water immediately after the beverage/medication intake (to avoid contamination from residue). Touch-based measurements were performed using corresponding TH-sensors before and at intermittent time points after the beverage/medication intake. The water loss from the fingertip was monitored by an evaporimeter (VapoMeter, Delfin Technologies). The fingertip temperature was monitored by a thermocouple (HT-9815, RISEPRO). […] BAC was estimated using an alcohol breathalyzer (S80, BACtrack Inc.). […]

[4] = touch-based APAP TH-sensor (DPV) measurement on index fingertip after APAP medication intake; type: in vivo, human; settings: 60 min after intake of 650 mg APAP, APAP-free threshold 3.7 nA
Procedure: Adopted was a similar study framework to evaluate the in-situ detection capability of APAP TH-sensor. For this context, the measured signal is defined as the voltammetric current peak height ([…]), and the threshold for determining the APAP-free state was measured as 3.7 nA (three trials). FIGS. 3D and 3E show the corresponding voltammograms measured by the APAP TH-sensor, 10 min before and 60 min after the intake of an APAP-based medication (containing 650 mg APAP). The comparison of the two voltammograms and the corresponding extracted current peaks (IP, pre-intake ~0 nA vs. IP, post-intake ~15 nA) validates that the developed TH-sensor is capable of detecting the presence of circulating APAP molecules via the devised touch-based modality.

TOH-ISE touch-based sensing signal, post versus pre drug intake [1]: larger signal
SMILES: O=C([O-])[O-].[Li+].[Li+] [lithium, lithium carbonate]
clinically relevant range in non-invasively retrievable biofluid (e.g., saliva) ([2]; saliva, ~twice the corresponding serum concentrations): 0.5 to 3 mM
therapeutic window ([2]; severe adverse effects if overdosed): 0.6 to 1.2 mM

ethanol TH-sensor signal S (slope of amperometric response) [3]: 21.5 nA/min
SMILES: CCO [ethanol]

APAP TH-sensor voltammetric current peak height IP, post-intake [4]: ~ 15 nA
SMILES: CC(=O)Nc1ccc(O)cc1 [APAP, acetaminophen]

From patent publication US12712060B2, “Multi-modal crypto/bio-human-machine interface” (The Regents of the University of California, priority 2022, dated 2026)
